Measured values taken from PMC12298827, “Subchronic Toxicities of Four Per- and Polyfluoroalkyl Substances (PFASs) by Oral Exposure in Sprague–Dawley Rats” (Toxics, 2025).

Tested on: male and female Sprague–Dawley rats
Assay: 90-day subchronic oral gavage toxicity study
Type: in vivo, rat
Procedure, shortened: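 Rats dosed daily by oral gavage in corn oil (3 mL/kg) for 90 days, five dose levels plus control, n = 10/sex/group, euthanized SD 91. Endpoints: clinical observation, bodyweight, feed intake, FOB/locomotor activity, ophthalmology, terminal hematology, serum chemistry, coagulation, plasma parent PFAS, organ weights, histopathology. Groups vs control by ANOVA/Dunnett's (p<0.05).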

**Q.** What does the source list for FC(F)(F)C(F)(F)C(F)(F)C(F)(F)CCI [PFHI, 1H,1H,2H,2H-Perfluorohexyl iodide]?
**A.** Liver/Brain Weight (female, 200 mg/kg-day): 481%; MPV (female, 200 mg/kg-day): 7.68 ± 0.44 fL; PT (female, 200 mg/kg-day): 13.98 s; Total BW change (female, 200 mg/kg-day): 108.57 g; Total Food Consumed (female, 200 mg/kg-day): 1566 g; BMD10, absolute kidney weight increase (male): 122 mg/kg-day; BMD10, relative kidney weight increase (male): 69.7 mg/kg-day; BMDL, absolute kidney weight increase (male): 83.8 mg/kg-day; BMDL, relative kidney weight increase (male): 56.6 mg/kg-day; LOEL, absolute kidney weight increase (male): 200 mg/kg-day; LOEL, absolute liver weight increase (male): 100 mg/kg-day; LOEL, relative kidney weight increase (male): 100 mg/kg-day; LOEL, relative liver weight increase (male): 25 mg/kg-day; NOEL, absolute kidney weight increase (male): 100 mg/kg-day; NOEL, absolute liver weight increase (male): 50 mg/kg-day; NOEL, relative kidney weight increase (male): 50 mg/kg-day; NOEL, relative liver weight increase (male): 12.5 mg/kg-day; % BW Gain (male, 12.5 mg/kg-day): 114.45%; % Diff, % BW Gain (male, 12.5 mg/kg-day): 0.87%; % Diff, Total BW change (male, 12.5 mg/kg-day): -1.78%; % Diff, Total Food Consumed (male, 12.5 mg/kg-day): -6.69%; A/G (male, 12.5 mg/kg-day): 0.91±0.04 ratio; ALB (male, 12.5 mg/kg-day): 3.42 ± 0.25 g/dL; ALPi (male, 12.5 mg/kg-day): 102.9±14.1 U/L; APTT (male, 12.5 mg/kg-day): 23.37 s; BUN (male, 12.5 mg/kg-day): 14.8 ± 2.0 mg/dL; CHOL (male, 12.5 mg/kg-day): 87.5 ± 9.2 mg/dL; GLOB (male, 12.5 mg/kg-day): 3.77 ± 0.18 g/dL; GLUC (male, 12.5 mg/kg-day): 199.1 ± 29.5 mg/dL; HCT (male, 12.5 mg/kg-day): 51.12±1.63%; HGB (male, 12.5 mg/kg-day): 15.92 ± 0.40 g/dL; Kidney Weight (male, 12.5 mg/kg-day): 3.04 g; Kidney/Body Weight (male, 12.5 mg/kg-day): 0.51%; Kidney/Brain Weight (male, 12.5 mg/kg-day): 140%; Liver Weight (male, 12.5 mg/kg-day): 15.35 g; Liver/Body Weight (male, 12.5 mg/kg-day): 2.59%; Liver/Brain Weight (male, 12.5 mg/kg-day): 706%; MPV (male, 12.5 mg/kg-day): 7.20 ± 0.26 fL; PT (male, 12.5 mg/kg-day): 14.91 s; Total BW change (male, 12.5 mg/kg-day): 319.83 g; Total Food Consumed (male, 12.5 mg/kg-day): 2217 g; % BW Gain (male, 25 mg/kg-day): 112.88%; % Diff, % BW Gain (male, 25 mg/kg-day): -0.52%; % Diff, Total BW change (male, 25 mg/kg-day): -1.33%; % Diff, Total Food Consumed (male, 25 mg/kg-day): -4.60%; A/G (male, 25 mg/kg-day): 0.88±0.10 ratio; ALB (male, 25 mg/kg-day): 3.35 ± 0.14 g/dL; ALPi (male, 25 mg/kg-day): 112.3±29.5 U/L; APTT (male, 25 mg/kg-day): 29.06 s; BUN (male, 25 mg/kg-day): 15.3 ± 2.1 mg/dL; CHOL (male, 25 mg/kg-day): 101.5 ± 15.8 mg/dL; GLOB (male, 25 mg/kg-day): 3.84 ± 0.36 g/dL; GLUC (male, 25 mg/kg-day): 204.5 ± 34.6 mg/dL; HCT (male, 25 mg/kg-day): 50.59±1.92%; HGB (male, 25 mg/kg-day): 15.67 ± 0.55 g/dL; Kidney Weight (male, 25 mg/kg-day): 3.20 g; Kidney/Body Weight (male, 25 mg/kg-day): 0.54%; Kidney/Brain Weight (male, 25 mg/kg-day): 147%; Liver Weight (male, 25 mg/kg-day): 16.98 g; Liver/Body Weight (male, 25 mg/kg-day): 2.85%; Liver/Brain Weight (male, 25 mg/kg-day): 780%; MPV (male, 25 mg/kg-day): 7.13 ± 0.21 fL; PT (male, 25 mg/kg-day): 14.69 s; Total BW change (male, 25 mg/kg-day): 321.29 g; Total Food Consumed (male, 25 mg/kg-day): 2266 g; % BW Gain (male, 50 mg/kg-day): 108.23%; % Diff, % BW Gain (male, 50 mg/kg-day): -4.61%; % Diff, Total BW change (male, 50 mg/kg-day): -5.67%; % Diff, Total Food Consumed (male, 50 mg/kg-day): -6.15%; A/G (male, 50 mg/kg-day): 0.91±0.04 ratio; ALB (male, 50 mg/kg-day): 3.41 ± 0.12 g/dL; ALPi (male, 50 mg/kg-day): 103.3±31.6 U/L; APTT (male, 50 mg/kg-day): 20.03 s; BUN (male, 50 mg/kg-day): 15.4 ± 1.8 mg/dL; CHOL (male, 50 mg/kg-day): 100.2 ± 18.8 mg/dL; GLOB (male, 50 mg/kg-day): 3.74 ± 0.13 g/dL; GLUC (male, 50 mg/kg-day): 196.8 ± 40.7 mg/dL; HCT (male, 50 mg/kg-day): 49.78±1.69%; HGB (male, 50 mg/kg-day): 15.53 ± 0.59 g/dL; Kidney Weight (male, 50 mg/kg-day): 3.25 g; Kidney/Body Weight (male, 50 mg/kg-day): 0.56%; Kidney/Brain Weight (male, 50 mg/kg-day): 143.1%; Liver Weight (male, 50 mg/kg-day): 17.05 g; Liver/Body Weight (male, 50 mg/kg-day): 2.92%; Liver/Brain Weight (male, 50 mg/kg-day): 754%; MPV (male, 50 mg/kg-day): 7.30 ± 0.36 fL; PT (male, 50 mg/kg-day): 15.14 s; Total BW change (male, 50 mg/kg-day): 307.16 g; Total Food Consumed (male, 50 mg/kg-day): 2229 g; % BW Gain (male, 100 mg/kg-day): 106.43%; % Diff, % BW Gain (male, 100 mg/kg-day): -6.20%; % Diff, Total BW change (male, 100 mg/kg-day): -9.44%; % Diff, Total Food Consumed (male, 100 mg/kg-day): -5.67%; A/G (male, 100 mg/kg-day): 0.87±0.20 ratio; ALB (male, 100 mg/kg-day): 3.34 ± 0.53 g/dL; ALPi (male, 100 mg/kg-day): 103.2±19.1 U/L; APTT (male, 100 mg/kg-day): 26.73 s; BUN (male, 100 mg/kg-day): 15.7 ± 3.2 mg/dL; CHOL (male, 100 mg/kg-day): 112.4 ± 25.0 mg/dL; GLOB (male, 100 mg/kg-day): 3.97 ± 0.63 g/dL; GLUC (male, 100 mg/kg-day): 171.8 ± 39.0 mg/dL; HCT (male, 100 mg/kg-day): 50.60±2.40%; HGB (male, 100 mg/kg-day): 15.71 ± 0.74 g/dL; Kidney Weight (male, 100 mg/kg-day): 3.38 g; Kidney/Body Weight (male, 100 mg/kg-day): 0.60%; Kidney/Brain Weight (male, 100 mg/kg-day): 156%; Liver Weight (male, 100 mg/kg-day): 18.32 g; Liver/Body Weight (male, 100 mg/kg-day): 3.24%; Liver/Brain Weight (male, 100 mg/kg-day): 843%; MPV (male, 100 mg/kg-day): 7.22 ± 0.38 fL; PT (male, 100 mg/kg-day): 15.16 s; Total BW change (male, 100 mg/kg-day): 294.89 g; Total Food Consumed (male, 100 mg/kg-day): 2241 g; % BW Gain (male, 200 mg/kg-day): 100.73%; % Diff, % BW Gain (male, 200 mg/kg-day): -11.23%; % Diff, Total BW change (male, 200 mg/kg-day): -14.29%; % Diff, Total Food Consumed (male, 200 mg/kg-day): -8.27%; A/G (male, 200 mg/kg-day): 0.91±0.04 ratio; ALB (male, 200 mg/kg-day): 3.55 ± 0.21 g/dL; ALPi (male, 200 mg/kg-day): 117.5±29.4 U/L; APTT (male, 200 mg/kg-day): 25.80 s; BUN (male, 200 mg/kg-day): 16.5 ± 2.0 mg/dL; CHOL (male, 200 mg/kg-day): 149.1 ± 27.7 mg/dL; GLOB (male, 200 mg/kg-day): 3.92 ± 0.23 g/dL; GLUC (male, 200 mg/kg-day): 163.2 ± 18.4 mg/dL; HCT (male, 200 mg/kg-day): 47.32±1.57%; HGB (male, 200 mg/kg-day): 14.88 ± 0.44 g/dL; Kidney Weight (male, 200 mg/kg-day): 3.60 g; Kidney/Body Weight (male, 200 mg/kg-day): 0.66%; Kidney/Brain Weight (male, 200 mg/kg-day): 168%; Liver Weight (male, 200 mg/kg-day): 20.17 g; Liver/Body Weight (male, 200 mg/kg-day): 3.70%; Liver/Brain Weight (male, 200 mg/kg-day): 944%; MPV (male, 200 mg/kg-day): 7.33 ± 0.31 fL; PT (male, 200 mg/kg-day): 15.32 s; Total BW change (male, 200 mg/kg-day): 279.08 g; Total Food Consumed (male, 200 mg/kg-day): 2179 g
